Read-outs that look alike come from different tables or passages of the source.

For one data set, the target named is HER2 (Homo sapiens (Human), UniProt P04626). Kind of data set: BT474 cellular assay (HER2 inhibition), phospho-HER2 ELISA. The format is cell-based. Conditions: inhibition of phosphor HER2, BT474 cells, 2 hours compound incubation. As for the experimental part: Assay a) BT474 Cellular Assay (HER2 Inhibition) Inhibition of phosphor HER2 was determined by enzyme-linked immunosorbent assay (ELISA) in BT474 cells. BT474 cell line was purchased from [NT] number HTB-20). Human Phospho-ErbB2 ELISA kit was purchased from R&D systems (catalog number DYC1768). Day 1: When the cells reach 70-90% confluence, cells were trypsinized and re-suspended. 5000 cells per well were seeded to a 384-well plate. The plate was incubated at 37° C. with 5% CO2 for 24 hours. ELISA plate was coated with 2 μg/ml capture antibody, which was incubated at 4° C. overnight. Day 2: 25 nl compounds was dosed by Echo from source plate and the 384-well plate was incubated at 37° C. for 2 hours. 30 μl lysis buffer was added to each well and the 384-well plate was shaken softly at 4° C. for 30 minutes. The ELISA plate was washed, blocked and incubated at room temperature for 1-2 hours. The blocked ELISA plate was washed and 20 μl cell lysate was transferred from the 384-well plate to the ELISA plate, which was incubated overnight at 4° C. Day 3: The ELISA plate was washed 3 times. 25 μl/well detection antibody was added (diluted 1 by 2000 in 1% BSA in PBS). After 2 hours of incubation with detection antibody, the ELISA plate was washed 3 times, 25 μl/well TMB substrate was added and incubated for 10-15 minutes before stop solution was added. Absorbance at 450 nm and 570 nm was read within 30 minutes after adding the stop solution. […] The IC50 results are provided in Table 1 for some exemplary compounds.
On the technique in general: An ELISA detects its analyte on a solid surface through an enzyme-linked reagent.

In the next data set the target is wt-EGFR (Homo sapiens (Human), UniProt P00533). Kind of data set: NCI H838 cellular assay (wt-EGFR inhibition), phospho-EGFR ELISA. Format: cell-based. Here is the method: Assay b) NCI H838 Cellular Assay (Wt-EGFR Inhibition) Inhibition of phosphor wt-EGFR was determined by enzyme-linked immunosorbent assay (ELISA) in NCI H838 cells (ATCC, catalog number CRL-5844). Human Phospho-EGFR DuoSet IC ELISA kit was purchased from R&D systems (catalog number DYC1095). Day 1: When the cells reach 70-90% confluence, cells were trypsinized and re-suspended. 5000 cells per well were seeded to a 384-well plate. The plate was incubated at 37° C. with 5% CO2 for 24 hours. Day 2: Cell culture medium was replaced with 40 μL FBS-Free RPMI1640. After 2 hours of starvation, the 384-well plate was dosed with 40 nL of compounds by Echo from source plate and the 384-well plate was incubated at 37° C. with 5% CO2 for 2 hours. After 2 hours of incubation with compounds, EGF (final concentration at 100 ng/ml) was added to the plate which was incubated at 37° C. with 5% CO2 for 5-10 minutes. Medium was discarded from the plate and 30 μl/well lysis buffer was added to the plate which was incubated at 4° C. for 10 minutes. The cell lysates can be stored at −80° C. in cell plates but must be thawed at room temperature for at least 30 minutes prior to use and continuing the assay. ELISA plate was coated by diluting capture antibody to 4 μg/ml with PBS, and 25 μl/well was dispensed to 384 well UltraCruz® ELISA Plate, which was incubated at 4° C. overnight. Day 3: After the plates were washed three times with 100 μl/well of wash buffer, the plates were blocked by adding 75 μl of Block Buffer to each well and incubated at room temperature for 3 hours. After the plates were washed three times with 100 μl/well of wash buffer, 20 μl cell lysate was transferred to the blocked ELISA plate which was incubated for 2 hours at room temperature. After the plates were washed three times with 100 μl/well of wash buffer, 25 μl/well detection antibody (dilute 1 in 900 in assay buffer) was added the plate which was incubated for 2 hours, protected from light. After washed three times, 25 μl/well TMB substrate was added to the ELISA plate which was incubated for about 10-15 min, protected from light before addition of 25 μl/well stop solution. Absorbance was read at 450 nm and 570 nm within 30 minutes.

Another data set addresses P-glycoprotein (Pgp) (Homo sapiens (Human), UniProt P08183). Kind of data set: MDCK-MDR1 Pgp assessment. The format is in vitro ADME. Conditions: for Pgp substrate status: conclusion from Table 3; for efflux ratio at 2 h, 1 μM: dog, MDCK-MDR1 cells, 37° C. for 2 hours, read-out: PgpER. As for the experimental part: Assay c): MDCK-MDR1 Pgp Assessment
Efflux transport mediated by P-glycoprotein (Pgp) was assessed by MDCK-MDR1 cells. The final concentrations of test compounds and control compound were at 1 μM. The multi-well insert plate was incubated at 37° C. for 2 hours.

Another data set deals with BCRP (Homo sapiens (Human), UniProt Q9UNQ0). Kind of data set: Caco-2 BCRP assessment. The format is in vitro ADME. Conditions: for BCRP ER: Caco-2 cells, 1 μM, efflux ratio -/+ novobiocin 30 μM, >2 = BCRP substrate. As for the experimental part: Assay d): Caco-2 BCRP Assessment
Caco-2 cells were used to study efflux transport mediated by BCRP. Rate of drug transport by BCRP was determined in the presence and absence of novobiocin, a strong inhibitor of BCRP, which was added to both apical and basolateral compartment sat a final concentration of 30 μM. The final concentrations of test compounds and control compound were at 1 μM. The multi-well insert plate was incubated at 37° C. for 2 hours. Efflux ratio (−inhibitor/+inhibitor)>2 was considered to be a BCRP substrate.
(In general: Caco-2 cells form a polarised layer with tight junctions and transporters.)

Data set [1] is described as follows: Mouse SOA study for brain penetration. The format is in vivo. Conditions: for brain penetration in vivo: mouse SOA study, conclusion from Table 3; for Mouse Kpu, u: male balb/c mice, oral 10 mg/kg, AUC 0-7 hr brain/plasma, unbound. As for the experimental part: Assay e) Mouse SOA Study for Brain Penetration
Six non-fasted male balb/c mice (6-8 weeks, 20-25 g) were orally administered at 10 mg/kg, using a suspension formulation of 1% methylcellulose (MC) in deionized water. Brain and blood samples were collected at 0.25, 0.5, 1, 2, 4, 7 hours after dose. Plasma was obtained by centrifuging the blood samples for 5 min at 4000 g and 4° C. Brain tissue was homogenized following addition of four times the volume of phosphate-buffered saline (pH 7.4). Quantification of the compound in plasma and brain was undertaken by LC-MS/MS. Area under the curve (AUC) was determined from 0 to 7 hours in the brain tissue and plasma.
Total brain to plasma concentration ratio Kp was determined using the equation: Brain Kp=AUC0-7 hr brain/AUC0-7 hr plasma
Unbound brain to plasma ratio was determined using the equation: Brain Kp,uu=Kp*fu,brain/fu,plasma
Unbound fraction (fu, plasma) and unbound fraction (fu, brain) were obtained from in vitro equilibrium dialysis by using plasma and brain homogenate, respectively.

A further data set concerns the target hERG channel (Homo sapiens (Human), UniProt Q12809). Kind of data set: hERG inhibition, manual patch clamp in HEK 293 cells. Conditions: for IC50: HEK 293 cell line stably expressing hERG channel, manual patch clamp; for hERG liability: conclusion from Table 3. The format is cell-based. Here is the method:
Assay f): hERG Inhibition Inhibition of hERG channel was conducted in HEK 293 cell line stably expressing hERG channel by manual patch clamp.
For orientation: The hERG channel carries a current that helps repolarise heart muscle cells.

The mark [2] stands for this setting: inhibition of phosphor wt-EGFR, NCI H838 cells, EGF 100 ng/ml.

HER2, sequence (P04626 23-1255): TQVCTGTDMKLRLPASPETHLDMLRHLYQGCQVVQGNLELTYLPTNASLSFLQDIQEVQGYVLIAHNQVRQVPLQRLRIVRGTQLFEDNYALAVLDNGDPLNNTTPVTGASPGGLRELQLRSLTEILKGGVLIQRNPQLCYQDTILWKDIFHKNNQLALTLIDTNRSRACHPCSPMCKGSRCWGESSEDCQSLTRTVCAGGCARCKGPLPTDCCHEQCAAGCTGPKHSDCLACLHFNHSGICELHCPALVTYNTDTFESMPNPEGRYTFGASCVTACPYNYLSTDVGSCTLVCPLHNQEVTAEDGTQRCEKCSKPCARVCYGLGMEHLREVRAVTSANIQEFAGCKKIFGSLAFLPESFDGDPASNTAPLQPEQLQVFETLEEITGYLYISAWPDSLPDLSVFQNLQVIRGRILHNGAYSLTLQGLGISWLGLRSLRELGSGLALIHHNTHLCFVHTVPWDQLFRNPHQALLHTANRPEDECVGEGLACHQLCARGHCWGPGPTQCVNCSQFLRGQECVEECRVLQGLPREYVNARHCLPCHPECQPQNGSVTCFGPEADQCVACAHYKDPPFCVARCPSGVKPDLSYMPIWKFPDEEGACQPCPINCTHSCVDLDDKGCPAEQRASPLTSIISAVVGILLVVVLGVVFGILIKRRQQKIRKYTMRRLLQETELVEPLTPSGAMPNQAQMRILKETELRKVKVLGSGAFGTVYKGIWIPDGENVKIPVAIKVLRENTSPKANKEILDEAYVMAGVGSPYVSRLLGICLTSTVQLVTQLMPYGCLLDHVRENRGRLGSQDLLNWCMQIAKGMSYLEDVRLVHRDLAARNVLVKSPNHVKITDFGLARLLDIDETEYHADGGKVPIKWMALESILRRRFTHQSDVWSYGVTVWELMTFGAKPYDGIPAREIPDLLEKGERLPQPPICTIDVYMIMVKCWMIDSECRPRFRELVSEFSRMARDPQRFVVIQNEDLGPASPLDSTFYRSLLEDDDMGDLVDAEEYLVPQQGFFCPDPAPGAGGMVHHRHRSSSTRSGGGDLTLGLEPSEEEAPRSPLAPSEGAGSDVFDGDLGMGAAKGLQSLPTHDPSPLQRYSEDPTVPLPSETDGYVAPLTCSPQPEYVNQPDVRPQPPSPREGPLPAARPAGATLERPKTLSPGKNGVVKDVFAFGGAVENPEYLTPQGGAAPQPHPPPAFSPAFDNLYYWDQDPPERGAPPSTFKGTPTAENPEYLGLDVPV
BCRP, sequence (Q9UNQ0 whole entry): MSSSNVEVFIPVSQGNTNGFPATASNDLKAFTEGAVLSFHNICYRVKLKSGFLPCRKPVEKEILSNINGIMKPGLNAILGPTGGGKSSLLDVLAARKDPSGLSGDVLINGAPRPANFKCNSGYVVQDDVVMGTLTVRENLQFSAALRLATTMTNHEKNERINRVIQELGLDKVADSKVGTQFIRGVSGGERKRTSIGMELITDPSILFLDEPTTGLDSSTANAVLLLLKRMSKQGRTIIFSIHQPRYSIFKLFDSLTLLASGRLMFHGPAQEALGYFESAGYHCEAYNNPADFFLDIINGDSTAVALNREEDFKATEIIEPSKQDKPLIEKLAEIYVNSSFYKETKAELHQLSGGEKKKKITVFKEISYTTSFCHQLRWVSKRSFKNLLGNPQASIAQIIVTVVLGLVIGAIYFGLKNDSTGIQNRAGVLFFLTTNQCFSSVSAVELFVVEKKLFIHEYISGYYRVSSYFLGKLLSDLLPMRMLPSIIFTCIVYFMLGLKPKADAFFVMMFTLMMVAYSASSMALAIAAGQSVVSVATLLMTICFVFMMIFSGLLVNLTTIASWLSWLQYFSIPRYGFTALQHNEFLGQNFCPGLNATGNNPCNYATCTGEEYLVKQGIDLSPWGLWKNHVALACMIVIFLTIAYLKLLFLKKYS
P-glycoprotein (Pgp), sequence (P08183 whole entry): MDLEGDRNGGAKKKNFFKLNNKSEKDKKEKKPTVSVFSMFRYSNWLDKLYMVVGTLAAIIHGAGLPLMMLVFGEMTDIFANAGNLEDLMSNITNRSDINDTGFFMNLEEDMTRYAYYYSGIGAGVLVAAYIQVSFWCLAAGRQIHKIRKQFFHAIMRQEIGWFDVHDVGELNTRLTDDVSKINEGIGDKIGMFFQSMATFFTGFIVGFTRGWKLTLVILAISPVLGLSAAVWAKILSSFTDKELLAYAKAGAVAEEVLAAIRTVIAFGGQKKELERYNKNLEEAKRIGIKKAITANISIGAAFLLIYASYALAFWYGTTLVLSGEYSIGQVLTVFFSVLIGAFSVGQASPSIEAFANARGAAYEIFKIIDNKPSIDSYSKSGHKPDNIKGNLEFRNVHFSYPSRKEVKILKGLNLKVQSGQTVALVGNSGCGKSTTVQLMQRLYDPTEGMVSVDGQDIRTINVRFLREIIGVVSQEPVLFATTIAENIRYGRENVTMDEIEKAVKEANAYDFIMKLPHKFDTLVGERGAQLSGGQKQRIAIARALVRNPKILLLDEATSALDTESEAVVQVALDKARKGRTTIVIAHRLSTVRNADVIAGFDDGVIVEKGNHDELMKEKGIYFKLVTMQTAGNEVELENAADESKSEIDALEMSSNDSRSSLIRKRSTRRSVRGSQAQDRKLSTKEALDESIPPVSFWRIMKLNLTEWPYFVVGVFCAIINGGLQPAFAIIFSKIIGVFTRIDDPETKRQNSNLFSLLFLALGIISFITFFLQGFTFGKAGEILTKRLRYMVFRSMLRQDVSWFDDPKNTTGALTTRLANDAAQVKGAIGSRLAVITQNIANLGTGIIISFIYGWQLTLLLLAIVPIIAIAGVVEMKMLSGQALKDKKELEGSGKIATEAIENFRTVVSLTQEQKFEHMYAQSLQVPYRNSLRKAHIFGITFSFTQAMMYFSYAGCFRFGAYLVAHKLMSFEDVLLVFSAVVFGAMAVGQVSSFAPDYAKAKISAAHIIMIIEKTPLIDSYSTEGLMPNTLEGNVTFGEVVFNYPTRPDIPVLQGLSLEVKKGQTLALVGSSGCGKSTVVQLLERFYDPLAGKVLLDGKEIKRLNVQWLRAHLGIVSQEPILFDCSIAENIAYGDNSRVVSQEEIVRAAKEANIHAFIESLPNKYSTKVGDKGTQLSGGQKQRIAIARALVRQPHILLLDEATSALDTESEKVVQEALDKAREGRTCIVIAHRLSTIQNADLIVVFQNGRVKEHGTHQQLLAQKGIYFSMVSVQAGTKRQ
hERG channel, sequence (Q12809 whole entry): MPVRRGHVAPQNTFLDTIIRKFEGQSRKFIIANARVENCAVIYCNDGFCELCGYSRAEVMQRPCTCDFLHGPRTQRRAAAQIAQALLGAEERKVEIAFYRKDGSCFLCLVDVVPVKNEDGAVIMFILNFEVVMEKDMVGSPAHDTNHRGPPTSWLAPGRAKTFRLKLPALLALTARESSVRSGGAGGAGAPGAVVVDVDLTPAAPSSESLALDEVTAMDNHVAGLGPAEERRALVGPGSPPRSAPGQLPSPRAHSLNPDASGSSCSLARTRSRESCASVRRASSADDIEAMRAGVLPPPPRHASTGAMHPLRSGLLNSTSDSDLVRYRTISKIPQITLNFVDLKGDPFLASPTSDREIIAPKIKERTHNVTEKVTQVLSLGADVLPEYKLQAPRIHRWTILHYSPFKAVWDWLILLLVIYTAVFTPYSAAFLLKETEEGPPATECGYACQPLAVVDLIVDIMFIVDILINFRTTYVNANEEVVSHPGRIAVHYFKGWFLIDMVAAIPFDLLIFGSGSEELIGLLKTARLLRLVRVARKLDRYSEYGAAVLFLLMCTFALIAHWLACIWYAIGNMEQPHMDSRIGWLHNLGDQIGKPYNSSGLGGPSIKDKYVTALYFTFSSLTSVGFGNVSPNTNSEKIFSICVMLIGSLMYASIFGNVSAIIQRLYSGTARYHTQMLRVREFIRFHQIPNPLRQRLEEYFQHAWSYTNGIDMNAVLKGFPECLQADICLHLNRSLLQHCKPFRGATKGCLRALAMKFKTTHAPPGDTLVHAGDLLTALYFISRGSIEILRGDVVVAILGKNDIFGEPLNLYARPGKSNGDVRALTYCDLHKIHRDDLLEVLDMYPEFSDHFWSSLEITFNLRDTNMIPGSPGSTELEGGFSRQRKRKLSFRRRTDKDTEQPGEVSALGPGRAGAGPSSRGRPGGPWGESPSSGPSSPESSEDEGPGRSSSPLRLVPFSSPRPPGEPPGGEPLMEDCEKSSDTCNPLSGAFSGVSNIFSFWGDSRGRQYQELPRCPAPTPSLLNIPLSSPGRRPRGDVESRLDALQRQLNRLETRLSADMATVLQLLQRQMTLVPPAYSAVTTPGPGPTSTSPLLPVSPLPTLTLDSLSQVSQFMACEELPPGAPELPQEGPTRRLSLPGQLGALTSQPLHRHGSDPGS

Take `COc1ccc2ncnc(Nc3ccc(Oc4cc5ncnn5cn4)c(C)c3)c2c1O[C@@H]1CCN(C)CC1(F)F` [Example 31, (R)—N-(4-([1,2,4]triazolo[1,5-c]pyrimidin-7-yloxy)-3-methylphenyl)-5-((3,3-difluoro-1-methylpiperidin-4-yl)oxy)-6-methoxyquinazolin-4-amine]: half-maximal inhibition at HER2 (IC50) was put at 9.5 nM. For the same compound, at wt-EGFR, 12000 nM corresponded to half-maximal inhibition (IC50). For the same compound, on P-glycoprotein (Pgp), the “Pgp substrate status” value is “not Pgp or BCRP substrates” and the efflux ratio at 2 h, 1 μM came out at 1.3. The “BCRP ER” value at BCRP is 0.68. Further, the “BCRP substrate status” value at BCRP (conclusion from Table 3) was “not Pgp or BCRP substrates”. In addition, the Kp in data set [1] (male, balb/c, mouse, brain, po, 10 mg/kg, read-out: Mouse Kpu, u) turned out to be 0.26. Moreover, in data set [1], the “brain penetration in vivo” value is “brain penetrable”. Besides, at hERG channel, the IC50 (usually the concentration that inhibits the measured activity by half) was determined as 18000 nM and the “hERG liability” value is reported as “do not show hERG liability”.

Consider `COc1ccc2ncnc(Nc3ccc(Oc4cc5ncnn5cn4)c(C)c3)c2c1N1C[C@H]2[C@@H]1CCN2C` [Example 45, N-(4-([1,2,4]triazolo[1,5-c]pyrimidin-7-yloxy)-3-methylphenyl)-6-methoxy-5-((1S,5S)-2-methyl-2,6-diazabicyclo[3.2.0]heptan-6-yl)quinazolin-4-amine], for which the IC50 was determined as 2.5 nM at HER2 and 6600 nM against wt-EGFR (setting [2]).

Take `COc1ccc2ncnc(Nc3ccc(Oc4cc5ncnn5cn4)c(C)c3)c2c1N1C[C@@H]2[C@H]1CCN2C` [Example 46, N-(4-([1,2,4]triazolo[1,5-c]pyrimidin-7-yloxy)-3-methylphenyl)-6-methoxy-5-((1R,5R)-2-methyl-2,6-diazabicyclo[3.2.0]heptan-6-yl)quinazolin-4-amine]: the half-maximal inhibitory concentration (IC50) was 7.3 nM at HER2 and 215 nM on wt-EGFR (setting [2]).

Consider `COc1cc(O[C@H]2CCN(C)CC2(F)F)c2c(Nc3ccc(Oc4cc5ncnn5cn4)c(C)c3)ncnc2c1` [Example 51, (S)—N-(4-([1,2,4]triazolo[1,5-c]pyrimidin-7-yloxy)-3-methylphenyl)-5-((3,3-difluoro-1-methylpiperidin-4-yl)oxy)-7-methoxyquinazolin-4-amine], for which the IC50 was determined as 176 nM against HER2 and 183 nM against wt-EGFR (setting [2]).

In the case of `COc1cc(O[C@@H]2CCN(C)CC2(F)F)c2c(Nc3ccc(Oc4cc5ncnn5cn4)c(C)c3)ncnc2c1` [Example 52, (R)—N-(4-([1,2,4]triazolo[1,5-c]pyrimidin-7-yloxy)-3-methylphenyl)-5-((3,3-difluoro-1-methylpiperidin-4-yl)oxy)-7-methoxyquinazolin-4-amine], the IC50 against HER2 turned out to be 182 nM; at wt-EGFR (setting [2]), 800 nM.

With `Cc1cc(Nc2ncnc3ccc(NC4=NC(C)(C)CO4)c(N4CC(N(C)C)C4)c23)ccc1Oc1cc2ncnn2cn1` [Example 54, N4-(4-([1,2,4]triazolo[1,5-c]pyrimidin-7-yloxy)-3-methylphenyl)-N6-(4,4-dimethyl-4,5-dihydrooxazol-2-yl)-5-(3-(dimethylamino)azetidin-1-yl)quinazoline-4,6-diamine], the IC50 was 190 nM against HER2 and > 10000 nM on wt-EGFR (setting [2]).

With `Cc1cc(Nc2ncnc3cccc(N4CC5(CN(C)CCO5)C4)c23)ccc1Oc1cc2ncnn2cn1` [Example 55, N-(4-([1,2,4]triazolo[1,5-c]pyrimidin-7-yloxy)-3-methylphenyl)-5-(8-methyl-5-oxa-2,8-diazaspiro[3.5]nonan-2-yl)quinazolin-4-amine], the figures for the IC50 on HER2 and against wt-EGFR (setting [2]) were 912 nM and > 10000 nM, respectively.

For the compound `CN1CCC(Oc2cccc3ncnc(Nc4ccc(NCc5ccccn5)c(Cl)c4)c23)CC1` [Reference compound 1, 2-chloro-N^4-(5-((1-methylpiperidin-4-yl)oxy)quinazolin-4-yl)-N^1-(pyridin-2-ylmethyl)benzene-1,4-diamine, reference compound], at P-glycoprotein (Pgp), the efflux ratio at 2 h, 1 μM worked out at 0.57. Also, at BCRP, the “BCRP ER” value was found to be 1.1. For the same compound, on hERG channel, the IC50 is < 2000 nM and the “hERG liability” value is reported as “strong hERG inhibitor”.

With `CCOc1cc2ncc(C#N)c(Nc3ccc(OCc4ccccn4)c(Cl)c3)c2cc1NC(=O)/C=C/CN(C)C` [Reference compound 2, Neratinib, reference compound], at P-glycoprotein (Pgp), the “Pgp substrate status” value is listed as “strong Pgp substrates” and the efflux ratio at 2 h, 1 μM is > 18.6. At BCRP, the “BCRP ER” value turned out to be 1.4. Also, in data set [1], the “Mouse Kpu, u” value is “too low to calculate” and the “brain penetration in vivo” value is reported as “not brain penetrable in vivo”. Moreover, the IC50 against hERG channel was > 10000 nM.

With `Cc1cc(Nc2ncnc3ccc(NC4=NC(C)(C)CO4)cc23)ccc1Oc1ccn2ncnc2c1` [Reference compound 3, N4-(4-([1,2,4]triazolo[1,5-a]pyridin-7-yloxy)-3-methylphenyl)-N6-(4,4-dimethyl-4,5-dihydrooxazol-2-yl)quinazoline-4,6-diamine, reference compound], on P-glycoprotein (Pgp), the “Pgp substrate status” value is reported as “strong Pgp substrates” and the efflux ratio at 2 h, 1 μM amounted to 23.8. At BCRP, the “BCRP ER” value was found to be 2.1. Moreover, in data set [1], the “Mouse Kpu, u” value is “too low to calculate” and the “brain penetration in vivo” value is listed as “not brain penetrable in vivo”. In addition, the IC50 against hERG channel is > 10000 nM.

The values above are taken from patent US11723908B2, “Quinazoline derivatives as antitumor agents” (SUZHOU ZANRONG PHARMA LIMITED, priority 2018, dated 2023).
